The record followed here is patent US6420558B1, “Aminopiperidine derivates as integrin αvβ3 antagonists” (Meiji Seika Kaisha, Ltd., priority 1998, dated 2002).

A value given as a limit tells only on which side of the number the result lay.

Assay [1] relates to human vascular smooth muscle cells adhering to immobilized human vitronectin. In words: Inhibitory activity against adhesion of human vascular smooth muscle cells to vitronectin. Type of assay: cell-based. Particulars: 1.5 h; human vitronectin-coated plate, 90 min. Here is the method:
Inhibitory Activity Against Adhesion of Human Vascular Smooth Muscle Cells to Vitronectin
The adhesion of human vascular smooth muscle cells =+to immobilized human vitronectin was measured in accordance with the method of Liaw et al. (Liaw L, Almeida M, Hart C E, Schwartz S M, and Giachelli C M, Circulation Research, 74 (2), 214-224 (1994)).
A Dulbecco's phosphate buffer (Dulbecco's PBS(−), Nissui Pharmaceutical Co., Ltd.) solution of human plasma-derived vitronectin (CALBIOCHEM) adjusted to a concentration of 4 μg/ml was first added to wells (50 μl/well) of a microplate (Maxisorp, Nunc), and a reaction for immobilization was allowed to proceed at 4° C. overnight. After washing twice with 150 μl of Dulbecco's phosphate buffer, a Dulbecco's phosphate buffer containing 10 mg/ml of bovine serum albumin (SIGMA) was added, followed by blocking at 37° C. for one hr. The assay plate was washed twice with 150 μl of Dulbecco's phosphate buffer.
Separately, human vascular smooth muscle cells cultivated at 37° C. under 5% carbon dioxide in a medium for vascular smooth muscle cells (Clonetics) were separated using a Dulbecco's phosphate buffer containing trypsin-EDTA (GIBCO BRL), washed with Dulbecco's phosphate buffer, and then suspended in a Dulbecco's modified Eagle's basal medium (Nissui Pharmaceutical Co., Ltd.) containing 0.1% bovine serum albumin to a concentration of 5×10^5/ml.
Next, 50 μl of a Dulbecco's modified Eagle's basal medium containing 10 mg/ml of bovine serum albumin with a medicament added thereto was added to the wells of the human vitronectin-coated assay microplate, followed by pre-cultivation under 5% carbon dioxide at 37° C. for 10 min. Thereafter, 50 μl of the medium with human vascular smooth muscle cells suspended therein was added thereto, and the plate was thoroughly stirred. A reaction was allowed to proceed under 5% carbon dioxide at 37° C. for 90 min. The reaction solution containing non-adherent cells were then removed, followed by washing three times with Dulbecco's phosphate buffer. For the adhered cells, 100 μl of a Dulbecco's phosphate buffer containing 4% paraformaldehyde (Wako Pure Chemical Industries, Ltd.) was added, and immobilization was allowed to proceed at room temperature for 10 min. Next, 100 μl of a Dulbecco's phosphate buffer containing 0.5% Toluidine Blue (Croma) and 4% paraformaldehyde was added, and staining was allowed to proceed at room temperature for 5 min, followed by thorough washing with distilled water. The inside of the wells was then air-dried, and a 1% aqueous sodium dodecylsulfate solution was then added to perform cytolysis. The absorbance of the microplate thus obtained was measured at 595 nm. […] The inhibition was calculated by the following equation. IC50 was determined from a primary regression line of the logarithm of each concentration of the test compound and the logarithm of (100−inhibition)/inhibition. [formula]

Assay [2] addresses T1, integrin α5β1 (fibronectin receptor purified from the human placenta) (Homo sapiens, UniProt P05556+P08648).
T1 construct: a fibronectin receptor (protein content: 52.1 μg/ml) purified from the human placenta; from tissue; host or cells: human placenta
Nature of the assay: α5β1 binding assay (fibronectin-fibronectin receptor binding assay). Particulars: fibronectin binding to human placenta fibronectin receptor; read-out: α5β1 Binding inhibitory activity. How it is done: Integrin α5β1 antagonistic activity (lethality) was measured for the compounds according to the present invention in a fibronectin-fibronectin receptor binding assay system in accordance with the method of Kouns et al. (W. C. Kouns, D. Kirchhofer, P. Hadvary, A. Edenhofer, T. Weller, G. Pfenninger, H. R. Baumgartner, L. K. Jennings, and B. Steiner, Blood, 80, 2539-2547 (1992)).
Specifically, a fibronectin receptor (protein content: 52.1 μg/ml) purified from the human placenta by the method of Pytela et al. (R. Pytela, M. D. Pierschbacher, S. Argraves, S. Suzuki, and E. Ruoslahti, Method in Enzymology, 144, 475-489 (1987)) was diluted 25 times with TBS (20 mM Tris-HCl, 150 mM NaCl, 1 mM CaCl2, 1 mM MgCl2, pH 7.4), and distributed and coated on wells (50 μl/well) of a plate (Maxisorp, Nunc, 96 well Immuno Plate). The plate was then allowed to stand at 4° C. for one day, washed twice with TBS (200 μl/well), and then subjected to blocking with TBS (150 μl/well) containing 3% skim milk (DIFCO) at 4° C. overnight. After washing twice with TBS (200 μl/well) containing 0.05% Tween-20 and then washing twice with TBS (200 μl/well), purification was carried out according to the method of E. Engvall et al. (E. Engvall, E. Ruoslahti, and E. J. Miller, J. Exp. Med., 147, 1584-1595 (1978)), and 50 […] of fibronectin adjusted to 0.2 μg/ml by the addition of TBS (TBS-Tween) containing 0.01% Tween-20 was mixed with 50 μl of each test compound adjusted to each concentration in the wells, and a reaction was allowed to proceed at room temperature for 3 hr. After the completion of the reaction, the wells were washed five times with TBS-Tween. A solution prepared by diluting a peroxidase-labeled fibronectin antibody (CAPPEL) 500 times with TBS-Tween was added in an amount of 50 μl per well, and a reaction was allowed to proceed at room temperature for 1.5 hr. After washing five times with TBS-Tween (200 μl/well), ABTS (SIGMA) adjusted to 1 mg/ml by the addition of a ten-fold diluted POD-buffer (ZYMED) was added in an amount of 50 μl/well, and a reaction was allowed to proceed for 5 to 10 min. A 0.1 M citric acid buffer (pH 4.3) containing 0.05% NaN3 was added in an amount of 50 μl/well to stop the reaction, followed by the measurement of the absorbance at 415 nm with a microplate reader (MTP 32, Corona Electric) (reference: 675 nm). The total binding was defined as the absorbance after a reaction using 50 μl of TBS-Tween instead of the test compound, and the non-specific binding (100% inhibition) was defined as the absorbance after a reaction using 50 μl of TBS-Tween containing 2×10^−3 M RGDS. The inhibition was calculated by the following equation: [formula]
IC50 was determined from a primary regression line of the logarithm of each concentration of the test compound and the logarithm of (100−inhibition)/inhibition.

T1 sequence (P08648 42-894 limits assumed): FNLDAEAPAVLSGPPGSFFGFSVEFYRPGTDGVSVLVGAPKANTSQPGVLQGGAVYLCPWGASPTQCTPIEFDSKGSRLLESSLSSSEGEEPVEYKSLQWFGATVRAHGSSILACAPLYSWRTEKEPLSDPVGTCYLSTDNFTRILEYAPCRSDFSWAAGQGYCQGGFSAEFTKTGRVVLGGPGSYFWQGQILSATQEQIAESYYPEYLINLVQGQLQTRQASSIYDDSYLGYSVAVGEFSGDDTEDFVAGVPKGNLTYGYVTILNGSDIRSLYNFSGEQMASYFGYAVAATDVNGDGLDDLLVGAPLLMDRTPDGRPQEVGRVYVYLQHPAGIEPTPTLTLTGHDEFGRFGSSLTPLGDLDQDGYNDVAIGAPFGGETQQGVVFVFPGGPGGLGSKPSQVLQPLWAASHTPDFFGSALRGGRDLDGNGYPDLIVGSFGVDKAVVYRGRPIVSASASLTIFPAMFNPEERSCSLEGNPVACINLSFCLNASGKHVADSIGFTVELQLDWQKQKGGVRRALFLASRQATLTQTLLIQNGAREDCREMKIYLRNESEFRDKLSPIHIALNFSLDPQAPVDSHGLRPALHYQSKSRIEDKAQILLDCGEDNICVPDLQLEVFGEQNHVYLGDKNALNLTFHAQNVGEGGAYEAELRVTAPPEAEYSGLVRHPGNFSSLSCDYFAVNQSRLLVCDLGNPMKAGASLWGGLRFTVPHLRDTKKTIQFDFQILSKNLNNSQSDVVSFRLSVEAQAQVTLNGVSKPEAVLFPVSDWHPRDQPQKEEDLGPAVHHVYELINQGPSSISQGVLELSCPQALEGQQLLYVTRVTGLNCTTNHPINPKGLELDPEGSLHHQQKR
T1 sequence (P08648 895-1049 limits assumed): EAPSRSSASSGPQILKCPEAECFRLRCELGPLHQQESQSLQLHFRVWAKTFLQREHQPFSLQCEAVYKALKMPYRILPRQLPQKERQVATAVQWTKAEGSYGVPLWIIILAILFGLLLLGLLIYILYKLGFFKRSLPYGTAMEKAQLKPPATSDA
T1 sequence (P05556 21-798): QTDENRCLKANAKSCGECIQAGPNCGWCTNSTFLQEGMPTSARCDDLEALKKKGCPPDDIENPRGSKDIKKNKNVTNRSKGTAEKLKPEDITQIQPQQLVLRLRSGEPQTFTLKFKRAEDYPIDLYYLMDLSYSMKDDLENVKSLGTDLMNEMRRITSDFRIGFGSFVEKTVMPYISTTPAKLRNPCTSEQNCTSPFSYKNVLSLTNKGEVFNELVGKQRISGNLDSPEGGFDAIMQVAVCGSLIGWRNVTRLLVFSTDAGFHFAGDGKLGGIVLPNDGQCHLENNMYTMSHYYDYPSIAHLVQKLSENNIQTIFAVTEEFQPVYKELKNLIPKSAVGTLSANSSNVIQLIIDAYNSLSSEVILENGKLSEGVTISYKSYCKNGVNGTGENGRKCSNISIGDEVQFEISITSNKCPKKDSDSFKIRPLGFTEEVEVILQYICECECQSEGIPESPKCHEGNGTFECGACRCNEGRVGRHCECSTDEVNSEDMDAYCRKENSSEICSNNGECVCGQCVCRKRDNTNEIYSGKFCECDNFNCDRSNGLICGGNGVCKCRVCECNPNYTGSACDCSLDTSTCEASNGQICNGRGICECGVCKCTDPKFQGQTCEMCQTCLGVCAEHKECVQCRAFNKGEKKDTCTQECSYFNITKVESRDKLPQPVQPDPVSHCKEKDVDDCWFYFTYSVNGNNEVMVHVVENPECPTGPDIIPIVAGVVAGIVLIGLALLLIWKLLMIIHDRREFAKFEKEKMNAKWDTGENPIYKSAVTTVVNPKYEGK

For the compound `O=C(NC[C@H](NS(=O)(=O)c1ccccc1)C(=O)O)c1ccc(N2CCC(NC3=NCCCN3)CC2)c(F)c1` [Example 52, (2S)-Benzenesulfonylamino-3-[3-fluoro-4-{4-(1,4,5,6-tetrahydropyrimidin-2-ylamino)piperidin-1-yl}-benzoylamino]propionic acid], the IC50 in assay [1] is at most 70 nM; in assay [2], 330 nM.
